Tests used:
Format in all cases: functional, cell-based
[1] = tested on: DU-145; assay: Antiproliferative activity against human DU145 cells assessed as reduction in cell viability incubated for 48 hr by MTT assay; settings: DU-145, 48 h
[2] = tested on: PC-3; assay: Antiproliferative activity against human PC3 cells assessed as reduction in cell viability incubated for 48 hr by MTT assay; settings: PC-3, 48 h
[3] = tested on: HT-29; assay: Antiproliferative activity against human HT29 cells assessed as reduction in cell viability incubated for 48 hr by MTT assay; settings: HT-29, 48 h
[4] = tested on: HCT-116; assay: Antiproliferative activity against human HCT116 cells assessed as reduction in cell viability incubated for 48 hr by MTT assay; settings: HCT-116, 48 h

Structure (SMILES) | IC50 [1] [µM] | IC50 [2] [µM] | IC50 [3] [µM] | IC50 [4] [µM]
COc1cc(C(=O)/C=C/c2ccc(OCCCNCCCN)cc2)cc(OC)c1OC | 10.2 | 20.4 | 13.7 | 21.9
COc1cc(C(=O)/C=C/c2ccc(OCCCNCCCNCCCCNCCCN)cc2)cc(OC)c1OC | 10.8 | 14 | > 40 | 11.8
COc1cc(C(=O)/C=C/c2ccc(OCCCNCCCCN)cc2)cc(OC)c1OC | 8.4 | 20.1 | 20.2 | 12.4
COc1cc(C(=O)/C=C/c2ccc(OCCCNCCCCNCCCN)cc2)cc(OC)c1OC | 20.6 | 32.6 | 31.8 | 20.3

Source: ChEMBL document CHEMBL4825690, “Synthesis and biological evaluation of chalcone-polyamine conjugates as novel vectorized agents in colorectal and prostate cancer chemotherapy” (Eur J Med Chem, 2021)
